# Test results from patent US12052991B2, “Substituted pyridinyloxybenzenes and salts thereof and use thereof as herbicidal agents” (Bayer Aktiengesellschaft, priority 2018, dated 2024).
# Key:
# Assay type in all cases: in vivo
# Veronica persica (VERPE) [1] = assay: Herbicidal pre-emergence action, test C (Table C12); conditions: dosage 1280 g/ha, visual scoring vs untreated controls
# From the text: (§1) Seeds of mono- and dicotyledonous weed plants were placed in plastic pots in sandy loam soil (doubly sown with one species each of mono- or dicotyledonous weed plants per pot) and covered with soil. The compounds of the invention, formulated in the form of wettable powders (WP) or as emulsion concentrates (EC), were then applied onto the surface of the covering soil as aqueous suspension or emulsion with addition of 0.5% additive at a water application rate of 600 liters per hectare (converted). After the treatment, the pots were placed in a greenhouse and kept under good growth conditions for the test plants. After about 3 weeks, the effect of the preparations was scored visually in comparison with untreated controls as percentages. For example, 100% activity=the plants have died, 0% activity=like control plants. Tables C1 to C12 below show the effects of selected compounds of the general formula (I) according to Table 1 on various harmful plants and an application rate corresponding to 1280 or 320 g/ha, which were obtained by the experimental procedure mentioned above.
# Stellaria media (STEME) [2] = assay: Herbicidal pre-emergence action, test C (Table C8); conditions: visual scoring after about 3 weeks, 100% = plants have died, 0% = like control plants
# From the text: as §1
# [3] = system: Abutilon theophrasti (ABUTH); assay: Herbicidal post-emergence action (Table B5); conditions: rated visually after about 3 weeks, 100% = plants have died, 0% = like control plants
# Experimental: (§2) Seeds of mono- and dicotyledonous weed plants were placed in plastic pots in sandy loam soil (doubly sown with in each case one species of mono- or dicotyledonous weed plants per pot), covered with soil and cultivated in a greenhouse under controlled growth conditions. 2 to 3 weeks after sowing, the test plants were treated at the one-leaf stage. The compounds of the invention, formulated in the form of wettable powders (WP) or as emulsion concentrates (EC), were applied onto the green parts of the plants as aqueous suspension or emulsion with addition of 0.5% additive at a water application rate of 600 liters per hectare (converted). After the test plants had been kept in the greenhouse under optimum growth conditions for about 3 weeks, the activity of the preparations was rated visually in comparison to untreated controls. For example, 100% activity=the plants have died, 0% activity=like control plants. Tables B1 to B12 below show the effects of selected compounds of the general formula (I) according to Table 1 on various harmful plants and an application rate corresponding to 1280 or 320 g/ha, which were obtained by the experimental procedure mentioned above.
# Stellaria media (STEME) [4] = assay: Herbicidal post-emergence action (Table B8); conditions: visual rating about 3 weeks after treatment, 100% = plants have died, 0% = like control plants
# Experimental: as §2
# [5] = system: Amaranthus retroflexus (AMARE); assay: Herbicidal pre-emergence action, test C (Table C6); conditions: visual scoring after about 3 weeks, 100% = plants have died, 0% = like control plants
# From the text: as §1
# Poa annua (POAAN) [6] = assay: Herbicidal pre-emergence action, test C (Table C3); conditions: visual scoring after about 3 weeks, 100% = plants have died, 0% = like control plants
# From the text: as §1
# Setaria viridis (SETVI) = assay: Herbicidal pre-emergence action, test C (Table C4); conditions: visual scoring after about 3 weeks, 100% = plants have died, 0% = like control plants
# From the text: as §1
# [7] = system: Abutilon theophrasti (ABUTH); assay: Herbicidal pre-emergence action, test C (Table C5); conditions: dosage 1280 g/ha; visual scoring after about 3 weeks; 100% = plants have died, 0% = like control plants
# From the text: as §1
# [8] = system: harmful plants ABUTH, AMARE, ECHCG, LOLRI, MATIN, POAAN, SETVI, STEME, ALOMY, DIGSA, KCHSC and VERPE; assay: Herbicidal pre-emergence action (test C), summary of Tables C1-C12; conditions: application rate of 1280 or 320 g of active ingredient per hectare; summary in words
# From the text: as §1, with “percentages.” for “percentages. For example, 100% activity=the plants have died, 0% activity=like control plants. Tables C1 to C12 below show the effects of selected compounds of the general formula (I) according to Table 1 on various harmful plants and an application rate corresponding to 1280 or 320 g/ha, which were obtained by the experimental procedure mentioned above.”
# (§3) For example, 100% activity=the plants have died, 0% activity=like control plants.
# Tables C1 to C12 below show the effects of selected compounds of the general formula (I) according to Table 1 on various harmful plants and an application rate corresponding to 1280 or 320 g/ha, which were obtained by the experimental procedure mentioned above.
# As the results of Tables C1-C12 show, compounds no.
# [9] = system: Matricaria inodora (MATIN); assay: Herbicidal pre-emergence action, test C (Table C7); conditions: dosage 1280 g/ha; visual scoring after about 3 weeks; 100% = plants have died, 0% = like control plants
# From the text: as §1
# [10] = system: Digitaria sanguinalis (DIGSA); assay: Herbicidal post-emergence action (Table B10); conditions: dosage 1280 g/ha; visual rating about 3 weeks after treatment; 100% = plants have died, 0% = like control plants
# Experimental: as §2
# [11] = system: harmful plants ABUTH, AMARE, ECHCG, LOLRI, MATIN, POAAN, SETVI, STEME, ALOMY, DIGSA, KCHSC and VERPE; assay: Herbicidal post-emergence action, summary of Tables B1-B12; conditions: application rate of 1280 or 320 g of active ingredient per hectare; summary in words
# Experimental: as §2, with “controls.” for “controls. For example, 100% activity=the plants have died, 0% activity=like control plants. Tables B1 to B12 below show the effects of selected compounds of the general formula (I) according to Table 1 on various harmful plants and an application rate corresponding to 1280 or 320 g/ha, which were obtained by the experimental procedure mentioned above.”
# as §3
# Tables B1 to B12 below show the effects of selected compounds of the general formula (I) according to Table 1 on various harmful plants and an application rate corresponding to 1280 or 320 g/ha, which were obtained by the experimental procedure mentioned above.
# As the results of Tables B1-B12 show, compounds no.
# [12] = system: Echinochloa crus-galli (ECHCG); assay: Herbicidal post-emergence action (Table B1); conditions: 1280 g/ha; rated visually after about 3 weeks; 100% = plants have died, 0% = like control plants
# Experimental: as §2
# Veronica persica (VERPE) [13] = assay: Herbicidal post-emergence action (Table B12); conditions: visual rating about 3 weeks after treatment, 100% = plants have died, 0% = like control plants
# Experimental: as §2
# [14] = system: Digitaria sanguinalis (DIGSA); assay: Herbicidal pre-emergence action, test C (Table C10); conditions: dosage 1280 g/ha; visual scoring after about 3 weeks; 100% = plants have died, 0% = like control plants
# From the text: as §1
# Poa annua (POAAN) [15] = assay: Herbicidal post-emergence action (Table B3); conditions: rated visually after about 3 weeks, 100% = plants have died, 0% = like control plants
# Experimental: as §2
# [16] = system: Amaranthus retroflexus (AMARE); assay: Herbicidal post-emergence action (Table B6); conditions: visual rating about 3 weeks after treatment, 100% = plants have died, 0% = like control plants
# Experimental: as §2
# Bassia scoparia (KCHSC) = assay: Herbicidal post-emergence action (Table B11); conditions: dosage 1280 g/ha; visual rating about 3 weeks after treatment; 100% = plants have died, 0% = like control plants
# Experimental: as §2
# [17] = system: Alopecurus myosuroides (ALOMY); assay: Herbicidal post-emergence action (Table B9); conditions: rated visually after about 3 weeks, 100% = plants have died, 0% = like control plants
# Experimental: as §2
Structure (SMILES),Pre-emergence action against Veronica persica (VERPE) (Veronica persica (VERPE) [1]),Pre-emergence action against Stellaria media (STEME) (Stellaria media (STEME) [2]; dosage 320 g/ha),Pre-emergence action against Stellaria media (STEME) (Stellaria media (STEME) [2]; dosage 1280 g/ha),Post-emergence action against Abutilon theophrasti (ABUTH) ([3]; 1280 g/ha),Post-emergence action against Stellaria media (STEME) (Stellaria media (STEME) [4]; dosage 1280 g/ha),Pre-emergence action against Amaranthus retroflexus (AMARE) ([5]; dosage 320 g/ha),Pre-emergence action against Amaranthus retroflexus (AMARE) ([5]; dosage 1280 g/ha),Pre-emergence action against Poa annua (POAAN) (Poa annua (POAAN) [6]; dosage 1280 g/ha),Pre-emergence action against Setaria viridis (SETVI) (Setaria viridis (SETVI); dosage 1280 g/ha),herbicidal activity against the harmful plants of Tables C1-C12 in pre-emergence treatment [8],Pre-emergence action against Matricaria inodora (MATIN) [9],Post-emergence action against Digitaria sanguinalis (DIGSA) [10],herbicidal activity against the harmful plants of Tables B1-B12 in post-emergence treatment [11],Post-emergence action against Veronica persica (VERPE) (Veronica persica (VERPE) [13]; dosage 320 g/ha),Post-emergence action against Veronica persica (VERPE) (Veronica persica (VERPE) [13]; dosage 1280 g/ha),Pre-emergence action against Digitaria sanguinalis (DIGSA) [14],Post-emergence action against Stellaria media (STEME) (Stellaria media (STEME) [4]; dosage 320 g/ha),Post-emergence action against Poa annua (POAAN) (Poa annua (POAAN) [15]; 320 g/ha),Post-emergence action against Poa annua (POAAN) (Poa annua (POAAN) [15]; 1280 g/ha),Post-emergence action against Amaranthus retroflexus (AMARE) ([16]; dosage 1280 g/ha),further results
Cc1ccc(-c2cc(C(F)F)no2)c(Oc2ccccn2)c1 [Example 1-25],90%,90%,100%,90%,100%,100%,100%,90%,100%,very good herbicidal activity,90%,100%,very good herbicidal activity,–,–,–,–,–,–,–,Pre-emergence action against Setaria viridis (SETVI) (Setaria viridis (SETVI); dosage 320 g/ha): 100%; Pre-emergence action against Abutilon theophrasti (ABUTH) [7]: 100%
COc1ccc(-c2cc(C(F)F)no2)c(Oc2ccc(Cl)cn2)c1 [Example 1-39],100%,100%,100%,90%,100%,100%,100%,100%,90%,very good herbicidal activity,90%,–,very good herbicidal activity,100%,100%,90%,100%,100%,100%,100%,Post-emergence action against Echinochloa crus-galli (ECHCG) [12]: 90%; Pre-emergence action against Poa annua (POAAN) (Poa annua (POAAN) [6]; dosage 320 g/ha): 100%; Post-emergence action against Amaranthus retroflexus (AMARE) ([16]; dosage 320 g/ha): 100%
CCc1ccc(Oc2cccc(CC)c2-c2cc(C(F)F)no2)nc1 [Example 1-60],100%,100%,100%,90%,100%,–,100%,100%,100%,very good herbicidal activity,100%,100%,very good herbicidal activity,100%,100%,100%,100%,90%,100%,100%,Post-emergence action against Amaranthus retroflexus (AMARE) ([16]; dosage 320 g/ha): 100%; Post-emergence action against Bassia scoparia (KCHSC) (Bassia scoparia (KCHSC)): 100%; Post-emergence action against Alopecurus myosuroides (ALOMY) ([17]; 320 g/ha): 100%; Post-emergence action against Alopecurus myosuroides (ALOMY) ([17]; 1280 g/ha): 100%
FC(F)(F)c1ccc(-c2ccccc2Oc2ccc(Cl)cn2)nc1 [Example 1-67],100%,100%,100%,100%,100%,–,100%,100%,100%,very good herbicidal activity,–,90%,very good herbicidal activity,100%,100%,100%,100%,100%,100%,100%,Post-emergence action against Abutilon theophrasti (ABUTH) ([3]; 320 g/ha): 90%; Post-emergence action against Bassia scoparia (KCHSC) (Bassia scoparia (KCHSC)): 90%; Post-emergence action against Alopecurus myosuroides (ALOMY) ([17]; 1280 g/ha): 90%
